Reference: patent US9227969B2, “Compounds and compositions as inhibitors of MEK” (NOVARTIS AG, priority 2013, dated 2016)
Like-named read-outs stand apart in the source and are kept apart here.

Experiments:
[1] = biological target: T1, human full length MEK1 kinase (Homo sapiens (Human), UniProt Q02750); conditions: read-out: MEK1 1 mM ATP IC50, BRAF-MEK-ERK cascade
Excerpt: (§2) A BRAF-MEK-ERK cascade assay is used to evaluate the effects of these compounds as inhibitors of the MAP kinase pathway. […] TR-FRET (Time resolved fluorescence resonance energy transfer) detection technology is used for the read out.

[2] = biological target: T1, human full length MEK1 kinase; test: biochemical
Excerpt: as §2

[3] = biological target: ABL1 (Homo sapiens (Human), UniProt P00519); test: Kinase Panel screen: ABL1; type: biochemical
ABL1, sequence (P00519 whole entry, species assumed): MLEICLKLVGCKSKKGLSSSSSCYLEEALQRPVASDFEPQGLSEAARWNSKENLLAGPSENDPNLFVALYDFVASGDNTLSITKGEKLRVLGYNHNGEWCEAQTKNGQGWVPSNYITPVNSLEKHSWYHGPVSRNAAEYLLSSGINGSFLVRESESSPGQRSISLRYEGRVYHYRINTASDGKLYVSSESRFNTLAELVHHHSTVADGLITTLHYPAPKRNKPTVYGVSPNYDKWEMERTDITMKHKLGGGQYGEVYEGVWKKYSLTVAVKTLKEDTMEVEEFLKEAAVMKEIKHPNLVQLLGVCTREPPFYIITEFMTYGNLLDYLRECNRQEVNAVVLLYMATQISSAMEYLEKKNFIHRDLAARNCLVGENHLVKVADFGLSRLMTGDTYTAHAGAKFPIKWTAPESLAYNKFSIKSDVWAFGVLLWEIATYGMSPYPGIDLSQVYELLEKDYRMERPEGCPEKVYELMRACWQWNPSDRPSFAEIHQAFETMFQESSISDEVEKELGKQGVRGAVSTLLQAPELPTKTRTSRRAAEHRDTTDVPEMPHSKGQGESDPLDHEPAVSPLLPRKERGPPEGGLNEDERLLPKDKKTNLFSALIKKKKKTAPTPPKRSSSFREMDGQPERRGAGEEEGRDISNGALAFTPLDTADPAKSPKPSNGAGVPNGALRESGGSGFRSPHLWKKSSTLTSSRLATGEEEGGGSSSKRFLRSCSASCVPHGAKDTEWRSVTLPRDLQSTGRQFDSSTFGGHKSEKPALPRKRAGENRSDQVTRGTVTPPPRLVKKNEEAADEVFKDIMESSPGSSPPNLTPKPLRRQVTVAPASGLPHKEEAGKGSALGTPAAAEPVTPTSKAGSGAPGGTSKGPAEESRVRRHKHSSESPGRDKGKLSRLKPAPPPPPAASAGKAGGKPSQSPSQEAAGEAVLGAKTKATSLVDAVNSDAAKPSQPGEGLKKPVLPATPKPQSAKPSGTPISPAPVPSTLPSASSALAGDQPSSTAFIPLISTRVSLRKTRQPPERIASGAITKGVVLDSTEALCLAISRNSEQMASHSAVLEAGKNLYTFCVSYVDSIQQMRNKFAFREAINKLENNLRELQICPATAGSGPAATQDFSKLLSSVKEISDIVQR
Excerpt: (§1) Compounds of the invention are screened, using assay conditions known in the art, against some or all of the “Kinase Panel” comprising ABL1, ABL1 (T315I), ACVR1, AKT1, ALK, AURKA, AXL, BTK, CAMK2D, CDK1B, CDK2A, CDK4D1, CSK, CSNK1G3, EGFR, EPHA4, EPHB4, ERBB4, FGFR1, FGFR2, FGFR3, FGFR3 (K650E), FGFR4, FLT3 (D835Y), IGF1R, GSK3B, INSR, IRAK4, JAK1, JAK2, JAK3, KDR, KIT, LCK, LYN, MAP3K8, MAPK1, MAPK10, MAPK14, MAPKAPK2, MAPKAPK5, MET, MKNK1, MKNK2, PAK2, PDGFRa, PDPK1, PIM2, PKN1, PKN2, PLK1, PRKACA, PRKCA, PRKCQ, RET, ROCK2, RPS6 KB1, SRC, SYK, TYK2, WNK1, ZAP70, PIKSCD, PIK3CG, MTOR, PIK3C3, PIK3CA, PIK3CB and PIK4CB.

[4] = biological target: LCK (Homo sapiens (Human), UniProt P06239); test: Kinase Panel screen: LCK; type: biochemical
LCK, sequence (P06239 whole entry, species assumed): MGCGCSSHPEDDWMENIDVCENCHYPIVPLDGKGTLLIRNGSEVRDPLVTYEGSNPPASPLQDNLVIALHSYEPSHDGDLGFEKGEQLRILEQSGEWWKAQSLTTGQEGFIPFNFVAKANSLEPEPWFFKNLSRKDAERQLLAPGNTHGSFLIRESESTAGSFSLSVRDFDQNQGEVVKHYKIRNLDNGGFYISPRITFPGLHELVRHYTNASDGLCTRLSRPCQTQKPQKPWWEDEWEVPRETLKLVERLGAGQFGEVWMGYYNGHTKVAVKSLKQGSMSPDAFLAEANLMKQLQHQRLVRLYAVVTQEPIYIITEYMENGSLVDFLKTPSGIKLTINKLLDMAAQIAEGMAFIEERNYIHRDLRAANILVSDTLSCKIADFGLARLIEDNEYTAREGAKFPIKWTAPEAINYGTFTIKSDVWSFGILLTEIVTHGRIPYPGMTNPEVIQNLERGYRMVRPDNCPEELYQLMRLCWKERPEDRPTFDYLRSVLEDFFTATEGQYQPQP
Excerpt: as §1

[5] = biological target: LYN (Homo sapiens (Human), UniProt P07948); test: Kinase Panel screen: LYN; type: biochemical
LYN, sequence (P07948 whole entry, species assumed): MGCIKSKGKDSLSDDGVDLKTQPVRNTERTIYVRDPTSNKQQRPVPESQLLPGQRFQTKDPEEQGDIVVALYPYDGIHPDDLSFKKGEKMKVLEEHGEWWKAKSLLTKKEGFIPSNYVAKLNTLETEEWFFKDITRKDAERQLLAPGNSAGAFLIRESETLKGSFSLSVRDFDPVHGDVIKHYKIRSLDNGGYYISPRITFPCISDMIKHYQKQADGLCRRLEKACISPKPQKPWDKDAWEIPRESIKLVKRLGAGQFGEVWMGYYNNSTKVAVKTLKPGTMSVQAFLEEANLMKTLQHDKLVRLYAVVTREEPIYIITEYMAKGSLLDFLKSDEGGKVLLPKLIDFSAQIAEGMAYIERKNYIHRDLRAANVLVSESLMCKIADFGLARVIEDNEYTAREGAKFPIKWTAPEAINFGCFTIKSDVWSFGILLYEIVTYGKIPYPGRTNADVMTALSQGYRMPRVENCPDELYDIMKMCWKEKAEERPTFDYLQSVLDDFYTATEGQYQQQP
Excerpt: as §1

[6] = biological target: PDGFRa (Homo sapiens (Human), UniProt P16234); test: Kinase Panel screen: PDGFRa; type: biochemical
PDGFRa, sequence (P16234 24-1089, species assumed): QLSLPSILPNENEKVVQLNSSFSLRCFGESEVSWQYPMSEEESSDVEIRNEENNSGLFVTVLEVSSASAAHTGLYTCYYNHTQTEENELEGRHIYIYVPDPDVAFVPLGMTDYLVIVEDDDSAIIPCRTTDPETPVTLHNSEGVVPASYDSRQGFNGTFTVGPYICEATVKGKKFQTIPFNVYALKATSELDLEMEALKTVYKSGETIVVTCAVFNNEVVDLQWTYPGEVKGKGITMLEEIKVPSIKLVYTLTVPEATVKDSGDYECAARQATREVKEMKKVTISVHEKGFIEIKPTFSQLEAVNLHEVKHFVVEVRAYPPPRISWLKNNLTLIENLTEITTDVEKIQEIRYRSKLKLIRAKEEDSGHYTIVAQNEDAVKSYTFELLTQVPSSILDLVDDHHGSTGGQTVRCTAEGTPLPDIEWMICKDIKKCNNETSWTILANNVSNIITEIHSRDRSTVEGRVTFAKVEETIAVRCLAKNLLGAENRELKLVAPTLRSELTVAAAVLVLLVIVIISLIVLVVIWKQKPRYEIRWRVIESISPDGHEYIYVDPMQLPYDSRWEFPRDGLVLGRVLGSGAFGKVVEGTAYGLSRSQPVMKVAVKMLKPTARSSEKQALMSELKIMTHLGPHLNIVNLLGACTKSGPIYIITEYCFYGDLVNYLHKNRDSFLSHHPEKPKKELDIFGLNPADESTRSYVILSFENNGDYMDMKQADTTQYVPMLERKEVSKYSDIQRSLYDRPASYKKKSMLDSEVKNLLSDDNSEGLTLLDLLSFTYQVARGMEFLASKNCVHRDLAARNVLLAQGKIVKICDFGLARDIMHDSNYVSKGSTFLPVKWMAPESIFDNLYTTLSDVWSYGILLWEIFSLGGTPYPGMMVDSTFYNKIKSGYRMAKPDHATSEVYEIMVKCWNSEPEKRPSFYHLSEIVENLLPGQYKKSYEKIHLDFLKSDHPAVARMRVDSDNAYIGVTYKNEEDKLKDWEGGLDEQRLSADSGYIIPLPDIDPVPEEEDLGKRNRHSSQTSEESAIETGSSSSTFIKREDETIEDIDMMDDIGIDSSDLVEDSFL
Excerpt: as §1

T1 sequence (Q02750 whole entry): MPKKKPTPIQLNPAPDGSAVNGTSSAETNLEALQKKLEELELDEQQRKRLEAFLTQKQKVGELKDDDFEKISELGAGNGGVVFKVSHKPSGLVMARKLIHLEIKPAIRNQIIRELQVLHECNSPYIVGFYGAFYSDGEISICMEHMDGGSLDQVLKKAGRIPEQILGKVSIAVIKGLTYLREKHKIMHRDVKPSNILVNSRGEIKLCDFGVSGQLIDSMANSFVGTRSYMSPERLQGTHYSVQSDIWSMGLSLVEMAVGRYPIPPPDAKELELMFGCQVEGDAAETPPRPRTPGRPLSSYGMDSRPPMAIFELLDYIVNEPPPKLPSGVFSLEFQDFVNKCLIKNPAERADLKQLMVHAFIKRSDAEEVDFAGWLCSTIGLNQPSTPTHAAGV

Cc1nc2cnc3cc(F)c(-c4ccc(Oc5ncccn5)cc4Cl)cc3c2n1[C@@H]1CCN(C(=O)CO)C[C@H]1F [Example 1B, 1-((3R,4R)-4-(8-(2-chloro-4-(pyrimidin-2-yloxy)phenyl)-7-fluoro-2-methyl-1H-imidazo[4,5-c]quinolin-1-yl)-3-fluoropiperidin-1-yl)-2-hydroxyethanone]
IC50 [1]: 138 nM
IC50 [2]: 138 nM

COc1cc(Oc2ccccn2)ccc1-c1ccc2ncc3ncn(-c4ccc(CC#N)cc4)c3c2c1 [compound (B)]
IC50 [3]: 20 nM
IC50 [4]: 7 nM
IC50 [5]: 30 nM
IC50 [6]: 50 nM

Cc1nc2cnc3cc(F)c(-c4ccc(Oc5ncccn5)cc4Cl)cc3c2n1[C@H]1CCN(C(=O)CO)C[C@@H]1F [Example 1A, 1-((3S,4S)-4-(8-(2-chloro-4-(pyrimidin-2-yloxy)phenyl)-7-fluoro-2-methyl-1H-imidazo[4,5-c]quinolin-1-yl)-3-fluoropiperidin-1-yl)-2-hydroxyethanone]
IC50 [1]: 5 nM
IC50 [2]: 5 nM
